The source of these data is patent US4861768A, “2 β-substituted thiomethylpenicillin derivatives and their preparation and use” (Taiho Pharmaceutical Company, Limited, priority 1986, dated 1989).

The test system of one experiment is Echerichia coli SHV 1. The experiment is described as follows: MIC of piperacillin alone or with compound, Echerichia coli SHV 1. It counts as cell-based. Particulars: 20 h, read-out: MIC, Piperacillin alone. How it is done:
(§1) (1) The minimal inhibitory concentrations (MIC) of piperacillin in the presence of 10 μg/ml of compounds of the present invention against various bacteria were determined by the MIC assay method of Japan Society of Chemotherapy (Chemotherapy 29, No. 1, pp. 76-79, 1981). The MIC values of various compounds according to the present invention and of piperacillin, as used singly, were also determined. Each test strain was grown in Mueller Hinton Broth (Difco) and used for inoculation after dilution to a concentration of 10^6 CFU/ml. The assay media (Mueller Hinton Broth) containing piperacillin and the compound according to the present invention in a series of concentrations were inoculated with the test strain and incubated at 37° C. for 20 hours. The minimum concentration at which no more than 5 colonies were observed was determined. […] All the test strains used in the above assays were β-lactamase producers.

Experiment [1] relates to Klebsiella pneumoniae 101 L (TEM1). The experiment is described as follows: MIC of piperacillin alone or with compound, Klebsiella pneumoniae 101 L (TEM1). Type of experiment: cell-based. The settings on record: 20 h, read-out: MIC, Piperacillin alone. How it is done:
as §1

For the next experiment, the system named is Morganella morganii 119. The experiment is described as follows: MIC of piperacillin alone or with compound, Morganella morganii 119. It counts as cell-based. Particulars: alone, Mueller Hinton Broth, 10^6 CFU/ml, 37° C., 20 hours. How it is done: as §1
Experiment [2] has as its system Serratia marcescens 200 L (TEM + C). The experiment can be described thus: MIC of piperacillin alone or with compound, Serratia marcescens 200 L (TEM + C). Particulars: alone, Mueller Hinton Broth, 10^6 CFU/ml, 37° C., 20 hours. Type of experiment: cell-based. The method, then:
as §1

A further experiment has as its system Acinetobacter 450 L. The experiment can be described thus: MIC of piperacillin alone or with compound, Acinetobacter 450 L. It counts as cell-based. Particulars: alone, Mueller Hinton Broth, 10^6 CFU/ml, 37° C., 20 hours. The method, then:
as §1

Experiment [3] relates to Pseudomonas aeruginosa PSE 3. The experiment can be described thus: MIC of piperacillin alone or with compound, Pseudomonas aeruginosa PSE 3. It counts as cell-based. Particulars: PSE3, alone, Mueller Hinton Broth, 10^6 CFU/ml, 37° C., 20 hours. How it is done: as §1
Experiment [4] deals with Staphylococcus aureus 54 K. The experiment can be described thus: MIC of piperacillin alone or with compound, Staphylococcus aureus 54 K. The settings on record: alone, Mueller Hinton Broth, 10^6 CFU/ml, 37° C., 20 hours. It counts as cell-based. The method, then:
as §1

Experiment [5] has as its target penicillinase (β-lactamase) from Bacillus SP. The experiment can be described thus: Test for β-lactamase inhibitory activity (microiodometry, penicillin G as substrate). It counts as biochemical. Particulars: read-out: 50% Inhibitory Concentration. How it is done: The inhibitory activity of each compound against penicillinase (β-lactamase) from Bacillus SP was determined by microiodometry [Tanpakushitsu Kakusan Koso (Proteins, Nucleic Acids and Enzymes), vol. 23, No.5, pp 391-400 (1978)] using penicillin G as a substrate.

In general, MIC refers to the least concentration at which growth counts as inhibited. For `CCN1CCN(C(=O)N[C@@H](C(=O)N[C@@H]2C(=O)N3[C@@H]2SC(C)(C)[C@@H]3C(=O)O)c2ccccc2)C(=O)C1=O` [Piperacillin, piperacillin], the MIC in the experiment with Echerichia coli SHV 1 is 12.5 µg/mL; in experiment [1], 200 µg/mL; in the experiment on Morganella morganii 119, 25 µg/mL; in experiment [2], 25 µg/mL; in the experiment on Acinetobacter 450 L, 200 µg/mL; in experiment [3], 50 µg/mL. Also, in experiment [4], the MIC was 6.25 µg/mL.
For `CC1(CSc2nnnn2-c2ccc(Cl)cc2)C(C(=O)O)N2C(=O)CC2S1(=O)=O` (stereo not drawn) [Compound 29, sodium 2β-(1-p-chlorophenyl-5-tetrazolylthio)methyl-2α-methylpenam-3α-carboxylate 1,1-dioxide], the IC50 in experiment [5] came out at 480 nM.
The same measure, in the same setting: in the case of `Cn1nnnc1SCC1(C)C(C(=O)O)N2C(=O)CC2S1(=O)=O` (stereo not drawn) [Compound 27, sodium 2α-methyl-2β-(1-methyl-5-tetrazolyl)thiomethylpenam-3α-carboxylate 1,1-dioxide] it was 870 nM.
Take `CC1(CSc2nnnn2CCO)C(C(=O)O)N2C(=O)CC2S1(=O)=O` (stereo not drawn) [Compound 31, sodium 2β-[1-(2'-hydroxyethyl)-5-tetrazolylthio]methyl-2α-methylpenam-3α-carboxylate 1,1-dioxide]: the IC50 in experiment [5] was determined as 1820 nM.
On the same count and under the same terms, in the case of `CC1(CSc2nnnn2-c2ccccc2)C(C(=O)O)N2C(=O)CC2S1(=O)=O` (stereo not drawn) [Compound 28, sodium 2α-methyl-2β-(1-phenyl-5-tetrazolyl)thiomethylpenam-3α-carboxylate 1,1-dioxide] it was 1000 nM.
The same measure, in the same setting: then `CC1(CSC#N)C(C(=O)O)N2C(=O)CC2S1(=O)=O` (stereo not drawn) [Compound 26, sodium 2α-methyl-2β-thiocyanatomethylpenam-3α-carboxylate 1,1-dioxide], with 9800 nM; and `COc1ccc(-n2nnnc2SCC2(C)C(C(=O)O)N3C(=O)CC3S2(=O)=O)cc1` (stereo not drawn) [Compound 30, sodium 2β-(1-p-methoxyphenyl-5-tetrazolylthio)methyl-2α-methylpenam-3α-carboxylate 1,1-dioxide], with 750 nM.
